Assay results taken from EP0494777A1, “(S)-11-Hydroxy-10-methyl aporphine and pharmaceutical compositions containing it” (BRITISH TECHNOLOGY GROUP LTD, priority 1991, dated 1992).

Experiments:
guinea pig ileum = target: T1, guinea pig ileum (Cavia porcellus, UniProt A0A286Y074); test: Single shock stimulation of guinea pig ileum: inhibition of longitudinal muscle contractions, or antagonism of the inhibitory action of 8-OH DPAT; conditions: for washings needed to return responses to induced electrical stimulation to control levels: after inhibition of contractions
T1 sequence (A0A286Y074 1-421): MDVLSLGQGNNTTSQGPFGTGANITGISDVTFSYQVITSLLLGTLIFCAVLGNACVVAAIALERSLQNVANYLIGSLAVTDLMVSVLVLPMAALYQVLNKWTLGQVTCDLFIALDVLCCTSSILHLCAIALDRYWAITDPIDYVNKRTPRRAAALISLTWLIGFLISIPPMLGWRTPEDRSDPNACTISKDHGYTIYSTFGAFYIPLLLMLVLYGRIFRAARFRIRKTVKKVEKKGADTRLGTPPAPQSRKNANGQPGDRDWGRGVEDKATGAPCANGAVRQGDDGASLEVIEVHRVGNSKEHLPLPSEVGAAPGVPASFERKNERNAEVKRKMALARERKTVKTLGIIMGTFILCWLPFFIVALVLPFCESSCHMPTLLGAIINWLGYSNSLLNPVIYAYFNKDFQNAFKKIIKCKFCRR
Experimental: Guinea pigs were anaesthetized with 35 mg of pentobarbital Na, administered i.p. and then sacrificed. Two centimeters of ileum, 10 cm from the cecum, was placed in Krebs-Ringer solution, and longitudinal muscle contractions were measured using a Stateham GT-03 force transducer. Contractions were recorded using a Beckman R-611 recorder.

5-HT1A sites = target: T2, 5-HT1A sites (Rattus norvegicus, UniProt P19327); test: Radioligand binding vs. [³H]8-OH DPAT in rat cortex membranes
T2 construct: 5% (w/v) homogenized rat cortex; from tissue; host or cells: rat cortex membranes
T2 sequence (P19327 1-422): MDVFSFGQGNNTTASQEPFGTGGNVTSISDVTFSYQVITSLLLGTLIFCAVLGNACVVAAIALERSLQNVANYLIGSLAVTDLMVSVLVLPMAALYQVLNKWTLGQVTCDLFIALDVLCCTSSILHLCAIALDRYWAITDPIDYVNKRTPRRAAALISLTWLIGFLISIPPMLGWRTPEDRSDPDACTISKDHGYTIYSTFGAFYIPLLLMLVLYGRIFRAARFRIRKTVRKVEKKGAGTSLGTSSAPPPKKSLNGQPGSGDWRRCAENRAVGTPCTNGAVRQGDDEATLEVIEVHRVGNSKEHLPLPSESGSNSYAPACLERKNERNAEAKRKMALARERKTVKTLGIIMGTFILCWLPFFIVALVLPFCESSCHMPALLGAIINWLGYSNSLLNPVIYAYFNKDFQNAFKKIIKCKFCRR
Experimental: Binding studies to determine the affinity of both the (R) and (S) enantiomer for 5-HT1A sites were conducted as previously described by Cannon et al., ibid. Rat cortex was homogenized in ice cold solution, centrifuged to isolate the membranes, and then washed. […] Non-specific binding was defined as binding remaining in the presence of 10 µM of 5-HT. […] The results are presented below in the Table together with those obtained in the studies using guinea pig ilea.

CN1C2CCC1CC(OC(=O)C(CO)c1ccccc1)C2 (racemic) [atropine sulphate, reference compound]
effect on contractions induced by transmural single shock stimulation (guinea pig ileum): inhibited

CCCN(CCC)C1CCc2cccc(O)c2C1 (stereo not drawn) [8-OH DPAT, 8-hydroxy-2-di-n-propylaminotetralin, reference compound]
washings needed to return responses to induced electrical stimulation to control levels (guinea pig ileum): Two or three
inhibition at 0.06 µM (guinea pig ileum; read-out: maximal inhibition of contractions induced by transmural stimulation): ~35%

Cc1ccc2c(c1O)-c1cccc3c1[C@@H](C2)N(C)CC3 [(R), (R)-11-hydroxy-10-methylaporphine, reference compound]
washings needed to return responses to induced electrical stimulation to control levels (guinea pig ileum): Two or three
EC50 (guinea pig ileum; read-out: Single Shock stimulation of guinea pig ileum ED50 for inhibition of contractions, transmural single shock stimulation (0.1 Hz)): 50 nM
ED50 for antagonism of inhibition of contraction by 8-OH DPAT (guinea pig ileum; single shock stimulation of guinea pig ileum, concentration of 8-OH-DPAT 0.06 μM): inactive
Ki (5-HT1A sites): 3.1 nM

Cc1ccc2c(c1O)-c1cccc3c1[C@H](C2)N(C)CC3.Cl [(S), (S)-11-Hydroxy-10-methylaporphine hydrochloride]
effect on ileum stimulating properties of nicotine (guinea pig ileum; 1 µM): did not alter
effect on ileum stimulating properties of potassium chloride (guinea pig ileum; 1 µM): did not alter
effect on resting tone of the ileum (guinea pig ileum; 1 µM): did not alter
IC50 (guinea pig ileum; read-out: ED50 for antagonism of inhibition of contraction by 8-OH DPAT, single shock stimulation of guinea pig ileum, concentration of 8-OH-DPAT 0.06 μM): 30 nM
antagonism of inhibition of contractions by the (R)-enantiomer (guinea pig ileum; single shock stimulation of cholinergic neurons): antagonized
Single Shock stimulation of guinea pig ileum ED50 for inhibition of contractions (guinea pig ileum; transmural single shock stimulation (0.1 Hz)): inactive
duration of repeated washings required to re-establish sensitivity of the preparation to the (R)-enantiomer or 8-OH DPAT (guinea pig ileum; washout): 2 to 3 h
Ki (5-HT1A sites): 39 nM
